Assays:
MDR1 = assay: MDCK-MDR1 permeability assay; format: in vitro ADME; settings: dog, 3 μM test compound; for efflux ratio at 2 h, 3 μM: Papp (B→A) divided by Papp (A→B), read-out: Efflux ratio (ER); for Papp A→B at 2 h, 3 μM: apical to basolateral, 2 hours at 37 degrees C
Experimental: The bidirectional permeability (Apical to Basal and Basal to Apical directions) of test compounds in MDCK-MDR1 cells were evaluated using MDCK-MDR1 cells seeded in Solvo PreadyPort™ MDCK 96-well plate. Once the plate was received from ReadyCell (Barcelona, Spain), it was treated as per PreadyPort™ user's manual.
For the Apical to Basolateral (A→B) permeability, 80 μL of test compound (3 μM) co-dosed with LY (Lucifer Yellow) (100 μM) in HBSS (Hank's Balanced Salt Solution) assay buffer was added to the donor side (A) while 250 μL of HBSS buffer was added to the receiver side (B). For the Basolateral to Apical (B→A) permeability, 255 μL of test compound (3 μM) in HBSS assay buffer was added to the donor side (B) while 75 μL of HBSS buffer containing LY (100 μM) was added to the receiver side (A).
The plate was placed in an incubator set at 37 degrees C. After 10 minutes of pre-warming, 5 μL aliquot was taken from donor compartment and set aside as the dosing solution. The MDCK-MDR1 incubation plate was placed back into the incubator for 2 hours of incubation at 37 degrees C. After 2 hours of incubation, 25 μL and 5 μL aliquots were removed from the receiver and donor sides, respectively. To the 5 μL aliquots taken from the donor sides (before and after a 2-hour incubation) were diluted with 20 μL of the HBSS buffer. All samples were mixed with 150 μL with acetonitrile containing internal standard (IS) and 200 μL water, and analyzed by LC-MS/MS.
The apparent permeability (Papp) was calculated using the following formula: Papp=dQ/dt×1/A×C0 where: • dQ/dt: amount of translocated material over incubation time (nmol/s) • A: area of insert (0.14 cm^2 for PreadyPort™ MDR1-96) • C0: initial concentration of product applied in apical (A→B) or basal (B→A) compartment (nmol/mL).
The efflux ratio (ER) was measured by dividing the Papp (basolateral to apical direction) by Papp (apical to basolateral direction). It is a general measure of the involvement of active processes. An ER >2 is considered positive for active transport.
The data reported in Table 3 were obtained according to the MDCK-MDR1 permeability assay described above.

[1] = target: T1, human orexin-2 receptor (OX2R) (Homo sapiens, UniProt O43614); assay: Human OX2R IP1 assay; format: cell-based; settings: T-Rex CHO cells stably overexpressing human OX2R; IP1 accumulation, 1 hr at 37 degrees C
T1 construct: expressed in transfected cells
T1 sequence (O43614 1-444): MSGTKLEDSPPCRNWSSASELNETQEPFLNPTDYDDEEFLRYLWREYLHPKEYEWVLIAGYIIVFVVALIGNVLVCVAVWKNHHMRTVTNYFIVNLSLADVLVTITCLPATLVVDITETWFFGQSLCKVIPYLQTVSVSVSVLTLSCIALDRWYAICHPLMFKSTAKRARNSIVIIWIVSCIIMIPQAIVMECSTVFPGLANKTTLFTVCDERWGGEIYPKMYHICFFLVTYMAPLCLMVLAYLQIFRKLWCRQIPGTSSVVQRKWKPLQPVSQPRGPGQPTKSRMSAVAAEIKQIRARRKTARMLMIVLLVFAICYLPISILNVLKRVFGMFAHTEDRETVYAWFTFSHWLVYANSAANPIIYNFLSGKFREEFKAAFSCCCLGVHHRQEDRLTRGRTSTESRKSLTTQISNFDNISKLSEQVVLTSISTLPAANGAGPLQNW
Experimental: T-Rex CHO cells stably overexpressing the human orexin-2 receptor (OX2R) were induced overnight with 1 μg/mL of doxycycline in a T225 flask. 24 hours post induction, cells were lifted with accutase and plated into a 384-well proxy plate at 30,000 cells/well. Cells were then treated with different test compounds in 1× stimulation buffer containing 10 mM Hepes, 1 mM CaCl2), 0.5 mM MgCl2, 4.2 mM KCl, 146 mM NaCl, 5.5 mM glucose, and 50 mM LiCl, pH 7.4, for 1 hr at 37 degrees C. Following incubation, the reaction was terminated by the addition of detection mix, which is composed of IP1-d2 and anti-IP1-cryptate diluted in lysis buffer as well as 1× stimulation buffer. The plates were allowed to incubate for 1 hour at room temperature and were then read in the EnVision® multimode plate reader, measuring inositol phosphate levels.
Cisbio IP1 is a cell-based functional assay quantifying the accumulation of inositol monophosphate (IP), a metabolite released as a result of orexin 2 receptor activation through the phospholipase C-Gq signaling pathway. This is a competitive immunoassay in which the IP1 produced by the cells upon receptor activation competes with the IP1 analog coupled to the d2 fluorophore (acceptor) for binding to an anti-IP1 monoclonal antibody labeled with Eu cryptate (donor). The measured HTRF-FRET based signal is inversely proportional to the IP1 concentration produced.
The EC50 values reported in Table 2 were obtained according to the human OX2R IP1 assay described above. Data are the mean EC50 values±S.E.M. The compound methyl (2R,3S)-3-((methylsulfonyl)amino)-2-(((cis-4-phenylcyclohexyl)oxy)methyl)-piperidine-1-carboxylate (sometimes referred to herein as Reference Compound A) is a reference compound which is disclosed in Example 5 of PCT publication no. WO2017/135306.

human hepatocytes = assay: Hepatocytes stability assay (human hepatocytes); format: in vitro ADME; settings: hepatic clearance divided by liver blood flow, fu assumed unity
Experimental: (§1) In vitro metabolic stability was assessed using cryopreserved hepatocytes from male Sprague Dawley rats and a pool of 50 mixed gender humans (BioIVT, Baltimore, MD). The incubation mixtures were prepared by mixing 250 μL of pre-warmed KHB (Krebs-Henseleit buffer) containing 2×10^6 cell/mL of hepatocytes with 250 μL of pre-warmed KHB buffer containing 2 μM of test compounds in a 48-well plate, giving a final concentration of 1 μM test compound (0.1% DMSO) and 1×10^6 cell/mL of hepatocytes. The reaction mixture was incubated at 37 degrees C. A 50 μL aliquot of incubation mixture was taken at time points (0, 15, 30, 60, 120 and 240 minutes) and transferred into a 96-well plate containing 300 μL ice-cold acetonitrile (containing 30 ng/mL of labetalol and 10 ng/mL of Naltrexone-d3 as internal standards) and immediately placed in ice to terminate the reaction. Samples were centrifuged, and supernatants were transferred into 96-well plates for liquid chromatography with tandem mass spectrometry (LC-MS/MS) analysis to monitor the depletion of the test compound. Data was calculated as percent remaining by assuming zero-minute time point peak area ratio (analyte/IS) as 100% and dividing remaining time point peak area ratios by zero-minute time point peak area ratio. Data were fitted to a first-order decay model to determine half-life. From a plot of log (ln) peak area against time, the slope of the line was determined. Subsequently, half-life (T1/2) and intrinsic clearance (CLint) were calculated using the equations below: • Elimination rate constant (k)=(−slope) • Half-life (T1/2) min=0.693/k • Intrinsic Clearance (CLint) (mL/min/million cells)=(V×0.693)/T1/2 • V=incubation volume mL/number of cells The in vitro T1/2 was converted to in vitro intrinsic clearance (CLint,hep) in units of mL/min/kg using the formula shown below: The in vitro intrinsic clearance (CLint,hep) was scaled to in vivo hepatic clearance (CL,hep) using the following equation which was adapted from a well-stirred model. [formula] where Q is the liver blood flow and fu is the fraction unbound (assumed to be unity in this case). All parameters used in the calculation are shown below (Table 4). The extraction ratio (ER) was calculated by dividing the hepatic clearance of a compound to the liver blood flow. The data reported in Table 5 were obtained according to the human hepatocytes stability assay described above.

[2] = Hepatocytes stability assay (human hepatocytes); format: in vitro ADME; settings: both sexes, cryopreserved hepatocytes, 1 μM test compound, 1×10^6 cell/mL, read-out: CLint (μL/min/million cells)
Experimental: as §1

Structure (SMILES)	efflux ratio at 2 h, 3 μM (MDR1)	Papp A→B at 2 h, 3 μM (MDR1) [×10⁻⁶ cm/s]	EC50 [1] [µM]	Extraction Ratio (ER) (human hepatocytes)	hepatocyte CLint at 1 μM [2] [µL/min/1e6 cells]
C[C@H](c1ccccc1)N1CC[C@H](NS(C)(=O)=O)C(COC2CCC(c3ccccc3)CC2)C1 (some centres unmarked) [Compound 38]	3.2	0.74	> 1	0.93	91
CS(=O)(=O)N[C@H]1CCN(c2ccccn2)CC1COC1CCC(c2cccnc2)CC1 (some centres unmarked) [Compound 3]	24	1.7	–	0.88	50
CS(=O)(=O)N[C@H]1CCN(c2ccccn2)CC1COC1CCC(c2ccncn2)CC1 (some centres unmarked) [Compound 8]	15	1.8	–	0.82	30
CS(=O)(=O)N[C@H]1CCN(Cc2ccccc2)CC1COC1CCC(c2ccccc2)CC1 (some centres unmarked) [Compound 36]	> 12	< 0.21	–	0.90	58
CS(=O)(=O)N[C@H]1CCN(c2ccccn2)CC1COC1CCC(c2cccc(C(F)(F)F)c2)CC1 (some centres unmarked) [Compound 33]	15	0.07	–	0.92	79
CS(=O)(=O)N[C@H]1CCN(c2cccnn2)CC1COC1CCC(c2ccccc2)CC1 (some centres unmarked) [Compound 22]	23	1.3	–	0.89	56
CS(=O)(=O)N[C@H]1CCN(c2ncccn2)CC1COC1CCC(c2ccccc2)CC1 (some centres unmarked) [Compound 19]	14	1.2	–	0.93	93
CS(=O)(=O)N[C@H]1CCN(c2ncccc2F)CC1COC1CCC(c2ccccc2)CC1 (some centres unmarked) [Compound 26]	37	0.31	–	0.89	55
CS(=O)(=O)N[C@H]1CCN(c2nccc3ocnc23)CC1COC1CCC(c2ccccc2)CC1 (some centres unmarked) [Compound 45]	2.2	1.9	–	0.94	103
CS(=O)(=O)N[C@H]1CCN(c2ccccn2)CC1COC1CCC(c2ccccc2O)CC1 (some centres unmarked) [Compound 30]	28	0.7	–	0.87	45
CS(=O)(=O)N[C@H]1CCN(c2ccccn2)CC1COC1CCC(c2ccnnc2)CC1 (some centres unmarked) [Compound 13]	18	0.67	–	0.71	16
CS(=O)(=O)N[C@H]1CCN(c2ncccc2C(F)(F)F)CC1COC1CCC(c2ccccc2)CC1 (some centres unmarked) [Compound 28]	> 3.4	< 1.2	–	0.96	154
CS(=O)(=O)N[C@H]1CCN(c2ccccn2)CC1COC1CCC(c2cccnn2)CC1 (some centres unmarked) [Compound 14]	> 56	< 0.12	–	0.77	22
CS(=O)(=O)N[C@H]1CCN(c2ccccn2)CC1COC1CCC(c2ncccn2)CC1 (some centres unmarked) [Compound 11]	11	1.6	–	0.76	21
Cc1cccc(C2CCC(OCC3CN(c4ccccn4)CC[C@@H]3NS(C)(=O)=O)CC2)c1C (some centres unmarked) [Compound 17]	> 6.9	< 0.28	–	0.83	32
CS(=O)(=O)N[C@H]1CCN(c2ccccn2)CC1COC1CCC(c2ccncc2)CC1 (some centres unmarked) [Compound 4]	14	1.2	–	0.89	57

Reference: patent US12441710B2, “Substituted piperidino compounds and related methods of treatment” (Alkermes, Inc., priority 2020, dated 2025)
